The target in one assay is Sfp (Bacillus subtilis, UniProt P39135). Put plainly: SDS-PAGE fluorescent carrier protein labeling follow-up. The assay is classed as biochemical, B. subtilis. Conditions: gel analysis (Figure S22).
The target in a further assay is T1, human PPTase (hPPTase) (Homo sapiens, UniProt Q9NRN7).
T1 sequence (Q9NRN7 1-309): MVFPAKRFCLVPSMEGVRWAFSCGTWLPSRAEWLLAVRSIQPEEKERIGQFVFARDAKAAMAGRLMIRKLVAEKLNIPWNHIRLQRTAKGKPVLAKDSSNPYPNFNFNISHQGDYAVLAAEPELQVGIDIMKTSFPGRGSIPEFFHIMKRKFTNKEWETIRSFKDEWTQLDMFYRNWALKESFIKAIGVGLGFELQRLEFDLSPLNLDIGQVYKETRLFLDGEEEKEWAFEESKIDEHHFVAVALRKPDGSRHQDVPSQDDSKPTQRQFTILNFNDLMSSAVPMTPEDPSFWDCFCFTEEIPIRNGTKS
The assay is described as follows: Fluorescence polarization phosphopantetheinylation assay. It counts as biochemical. In general terms: Polarisation of emitted light reports the rotation of a fluorescent probe.

Usually IC50 stands for the concentration needed to halve the response being measured.

SMILES strings stand for the structures. Counter-ions that a name gives are not always drawn.

Sequence of Sfp (P39135 whole entry): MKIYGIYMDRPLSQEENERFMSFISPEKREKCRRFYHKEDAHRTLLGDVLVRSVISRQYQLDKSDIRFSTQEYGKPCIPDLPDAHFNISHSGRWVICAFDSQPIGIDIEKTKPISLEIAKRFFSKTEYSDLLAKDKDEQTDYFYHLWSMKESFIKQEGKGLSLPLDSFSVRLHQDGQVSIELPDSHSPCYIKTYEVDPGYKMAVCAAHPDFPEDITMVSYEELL

In the case of `CC(C)(C)c1ccc(S(=O)(=O)/C=C/C#N)cc1` [Bay 11-7085], the “Effect on fluorescent labeling of the carrier protein substrate by SDS-PAGE” value (from here on “Effect on fluorescent labeling”) on Sfp is “increase fluorescent labeling”.
As to `NC(CO)C(=O)NNCc1ccc(O)c(O)c1O` (stereo not drawn) [benserazide HCl, benserazide], on human PPTase (hPPTase), the half-inhibitory concentration (IC50) was above 100 µM.
Still for that read-out and setting: next, `CC(C)(COP(=O)(O)OP(=O)(O)OC[C@H]1O[C@@H](n2cnc3c(N)ncnc32)[C@H](O)[C@@H]1OP(=O)(O)O)[C@@H](O)C(=O)NCCC(=O)NCCS` [coenzyme A]: 14 ± 1 µM.
For `NC(N)=Nc1ccc2[nH]c3c(c2c1)C[C@@]1(O)[C@H]2Cc4ccc(O)c5c4[C@@]1(CCN2CC1CC1)[C@H]3O5.O=C(O)C(F)(F)F.O=C(O)C(F)(F)F` [guanidinyl-naltrindole], the “Effect on fluorescent labeling” value at Sfp was “increase fluorescent labeling”.
In the case of `C[n+]1cc2c3c(ccc2c2ccc4cc5c(cc4c21)OCO5)OCO3` [sanguinarine Cl, sanguinarine], on Sfp, the “Effect on fluorescent labeling” value is reported as “inhibitory behavior”. The molecule also had an IC50 at human PPTase (hPPTase) above 100 µM.

Source of the values: publication PMC4807864 (The Journal of antibiotics, 2013).
